According to US20020128176A1, “Treatment of erectile dysfunctions with C-Type natriuretic polypeptide (CNP) as a monotherapy or in combination with phosphodiesterase inhibitors” (priority 1999, published 2002):
Where no end group is shown, it is not given here.

Legend:
[1] = Tests made with male patients: induction of erection; format: in vivo, human; conditions: for erection / time for which the erection was maintained: male patients
[2] = tested on: smooth muscle of the human corpus cavernosum penis; experiment: Functional organ bath studies: relaxation of norepinephrine-precontracted strip preparations of human cavernous muscles
Experimental: Functional organ bath studies:
Strip preparations of human cavernous muscles were fixed in the bath chambers of an organ bath plant (Isolated Organ Apparatus IOA 5306, Föhr Medical Instruments GmbH, Seeheim, Germany) filled with a modified Krebs-Ringer solution (NaCl 120 mM, NaHCO3 25.6 mM, KCl 4.7 mM, CaCl2 2.5 mM, NaH2PO4 1.2 mM, MgCl2 1.2 mM, glucose 22 mM, 2Na^+ (Ca^2+) EDTA 0.1 mM, pH 7.2-7.4). The temperature of the bath solution was controlled to 37° C., and a mixture of […] O2 and 5% CO2 was continuously sparkled through the solution. The application of a passive bias tension of 5 mN (0.5 g) was followed by an equilibration phase of 60 min. Subsequently, the muscle strips were stimulated with 6 μM norepinephrine (NOR). After a stable contraction plateau was reached, the peptides human atrial natriuretic peptide/cardiodilatin (ANP/CDD99-126) (for a survey, see Forssmann et al., 1998) and human C-type natriuretic peptide (CNP) (Ogawa et al., 1992), which are chemically synthesized in our laboratory, were added with cumulative dosage (0.01 to 1000 nM). Changes in the mechanical tension of the muscles were recorded with an analog-digital measured data acquisition system (MacLab®, AD Instruments, Castle Hill, Australia).

CCCc1nn(C)c2c(=O)[nH]c(-c3cc(S(=O)(=O)N4CCN(C)CC4)ccc3OCC)nc12 [Sildenafil, reference compound]
necessary dose for the induction of an erection ([1]; combined, simultaneous application of CNP): significantly decreased
side-effects (flickering in the eyes or headaches) ([1]; some subjects, combined application with CNP versus exclusive Sildenafil treatment): reduced, in part to complete disappearance

C-type natriuretic polypeptide (GLSKGCFGLKLDRIGSMSGLGC) [CNP, ligand of guanylate cyclase B]
concentration from which a significant relaxant effect is seen ([2]; strips precontracted with 6 μM norepinephrine, cumulative dosage 0.01 to 1000 nM): 1 nM
erection ([1]; intracavernous application): immediate erection
time for which the erection was maintained ([1]; intracavernous application): about one
erection ([1]; intravenous application): immediate erection
time for which the erection was maintained ([1]; intravenous application): about one

human atrial natriuretic peptide/cardiodilatin (SLRRSSCFGGRMDRIGAQSGLGCNSFRY; ends and bridges not checked; cysteine pairing not given here) [ANP/CDD99-126, Chemically synthesized peptide, the ligand of guanylate cyclase A, reference compound]
relaxation of precontracted smooth muscle (in words) ([2]; at corresponding concentrations (1 nM to 1 μM), precontracted with 6 μM norepinephrine): no significant relaxation
